Test results as given in patent US20240000071A1, “DEVICES, COMPOUNDS AND METHODS FOR INSECT CONTROL” (Agriculture Victoria Services Pty Ltd, priority 2020, published 2024).
Read-outs that look alike come from different tables or passages of the source.

Assays:
[1] = Release rate from LDPE sachets by gravimetry; type: physicochemical; conditions: for Release rate per thickness of LDPE pouch: 22° C., constant, laboratory; for Estimated longevity: standard size sachet (50 cm^2), 1 ml of neat compound
Source text: Sachets consist of plastic pouches made of Low Density PolyEthylene (LDPE) layflat tubing of determined size and thickness. Each sachet contained one or several dental wicks (approximately 4 cm length and 1 cm diameter) on which a given amount of the neat chemical compound was applied (between 0.1 and 5 g). The impregnated wick (20) was subsequently enclosed in the LDPE pouch (10) and sealed using a heat sealer (FIG. 3).
Release rates of the short chain esters and fungal alcohols were investigated in a range of sachet designs.

[2] = test system: Queensland fruit flies antennae and palps; assay: Electroantennogram (EAG) and Electropalpogram (EPG) screening; set-up: species or system Bactrocera tryoni
Source text: FIG. 2. Electrophysiological responses of Queensland fruit flies antennae (A) and palps (B) to fungal (FV) components. Graphs located on the upper part of each figure represent the electric potential of the antenna/palp. Arrows indicate points in time at which chemical stimulations are applied. Olfactory “responses” are characterised by sudden drops (spike) of the electric potential in the antenna; the amplitude of which is positively correlated to response strength. Stars indicate statistical significance of response amplitudes elicited by test compounds compared to that of the solvent (blank=paraffin oil). Bars represent the normalized responses relative to a positive control (ethyl hexanoate) of male (grey) and female (white) flies. Letters above bars indicate significant differences in response strength between each sex.
Graphs located on the upper part represent the electric potential of the antenna/palp. Arrows indicate points in time at which chemical stimulations are applied. Olfactory “responses” are characterised by sudden drops (spike) of the electric potential in the antenna; the amplitude of which is positively correlated to response strength. Stars indicate statistical significance of response amplitudes elicited by test compounds compared to that of the solvent (blank=paraffin oil). Bars represent the normalized responses relative to a positive control (ethyl hexanoate) of male (grey) and female (white) flies. Letters above bars indicate significant differences in response strength between male and female Qfly.

female B. tryoni = assay: GC-FID-EAD with odours of infested yellow nectarines; set-up: species or system Bactrocera tryoni; conditions: female B. tryoni antenna
Procedure: Gas-chromatography linked to electrophysiology (GC-FID-EAD) was conducted using female B. tryoni and odours of infested yellow nectarines (collected by SPME), to identify volatiles of interest as candidate female attractants.

[3] = test system: Mediterranean fruit fly, Ceratitis capitata; conditions: cited from earlier work

Release rate per thickness of LDPE pouch ([1]; 50 μm LDPE pouch)	Release rate per thickness of LDPE pouch ([1]; 100 μm LDPE pouch)	Release rate per thickness of LDPE pouch ([1]; 150 μm LDPE pouch)	Estimated longevity [1]	Release rate per thickness of LDPE pouch ([1]; 200 μm LDPE pouch)	SMILES	electrophysiological responses (EAG/EPG) ([2]; listed as 2-methyl-1-butanol)	electrophysiological responses (EAG/EPG) ([2]; listed as 2-methylbutanol)	electrophysiological responses (EAG/EPG) [2]	electrophysiological responses (EAG/EPG) ([2]; listed as iso-butyl alcohol)	electrophysiological (EAD) response (female B. tryoni)	electrophysiological response in EAG [3]
12 mg/day	3 mg/day	2 mg/day	>1 year	–	CC(C)CCO [Isoamyl alcohol]	–	–	strong electrophysiological responses	–	–	–
20 mg/day	4 mg/day	2 mg/day	>1 year	–	CC(C)CO [Isobutyl alcohol]	–	–	weak and inconsistent responses	strong electrophysiological responses	–	–

Further lines, the molecule ahead of its results:

SMILES	Release rate per thickness of LDPE pouch ([1]; 50 μm LDPE pouch)	Release rate per thickness of LDPE pouch ([1]; 100 μm LDPE pouch)	Release rate per thickness of LDPE pouch ([1]; 150 μm LDPE pouch)	Estimated longevity [1]	Release rate per thickness of LDPE pouch ([1]; 200 μm LDPE pouch)	electrophysiological responses (EAG/EPG) ([2]; listed as 2-methyl-1-butanol)	electrophysiological responses (EAG/EPG) ([2]; listed as 2-methylbutanol)	electrophysiological responses (EAG/EPG) [2]	electrophysiological responses (EAG/EPG) ([2]; listed as iso-butyl alcohol)	electrophysiological (EAD) response (female B. tryoni)	electrophysiological response in EAG [3]
CCC(C)CO (stereo not shown) [2-Methyl-butanol, 2-methyl-1-butanol]	16.4 mg/day	4.1 mg/day	2.1 mg/day	>1 year	–	strong electrophysiological responses	strong responses	–	–	–	–
CCOC(C)=O [Ethyl acetate]	880 mg/day	302.7 mg/day	180.6 mg/day	~6 days	134 mg/day	–	–	–	–	–	–
CCCC(=O)OCC [Ethyl butyrate]	700 mg/day	295 mg/day	171 mg/day	~6 days	127 mg/day	–	–	–	–	–	–
CCOC(=O)CC [Ethyl propionate]	880 mg/day	321 mg/day	200 mg/day	~5 days	171 mg/day	–	–	–	–	–	–
CCCCCCC1CCC(=O)O1 (stereo not shown) [γ-decalactone]	–	–	–	–	–	–	–	–	–	significant response	evoke an electrophysiological response
